These results are taken from patent publication US9221807B2, “Substituted pyridones and pyrazinones and their use as inhibitors of neutrophil elastase activity” (Boehringer Ingelheim International GmbH, priority 2014, dated 2015).

For the assay, the target named is T1, Human neutrophil elastase (Homo sapiens, UniProt P08246).
T1 construct: purchased Calbiochem 324681
T1 sequence (P08246 30-267): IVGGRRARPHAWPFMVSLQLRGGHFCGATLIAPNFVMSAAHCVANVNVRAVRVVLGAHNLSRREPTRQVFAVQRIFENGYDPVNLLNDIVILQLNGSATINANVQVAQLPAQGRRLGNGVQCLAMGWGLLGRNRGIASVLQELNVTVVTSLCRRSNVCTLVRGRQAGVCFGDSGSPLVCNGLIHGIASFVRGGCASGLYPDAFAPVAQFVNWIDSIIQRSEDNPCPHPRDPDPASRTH
In words: Human Neutrophil Elastase Assay. The assay is classed as biochemical. The note with it: substrate MeOSuc-Ala-Ala-Pro-Val-AMC 250 μM, pH 7.5, fluorescence. The protocol: Human Neutrophil Elastase Assay
Materials: Human neutrophil elastase was purchased from Calbiochem (Cat. No.: 324681) and the elastase substrate MeOSuc-Ala-Ala-Pro-Val-AMC from Bachem (Cat. No.: 1-1270). All other materials were of the highest grade commercially available. The following buffers were used: Compound buffer: 100 mM Tris, 500 mM NaCl, adjusted to pH 7.5; Assay buffer: 100 mM Tris, 500 mM NaCl, adjusted to pH 7.5, containing 0.01% BSA. Assay conditions: Test compounds were prediluted in DMSO and subsequently in compound buffer (5% DMSO final). 5 μL of these compound dilutions were mixed with 10 μl Neutrophil elastase (9 ng/ml in assay buffer) in a black 384 well OptiPlate (Perkin Elmer, Cat No.: 6007270) and incubated for 15 min at room temperature. Subsequently 10 μL substrate solution in assay buffer were added (250 μM final concentration) and the plates were incubated for 60 min at room temperature. After inactivation of the enzyme, fluorescence intensities were measured at 380 nm excitation and 460 nm emission wavelengths. Each plate contains wells with a high value control (DMSO+enzyme+substrate) and wells with a low value control (DMSO+inactivated enzyme+substrate). IC50 values were estimated using a sigmoidal concentration response curve with variable slope. Means of low values were taken as 0%, means of high values as 100%.

As a reminder, the IC50 is the concentration at which inhibition is half-maximal. Low readings indicate greater potency in that assay, high ones weaker potency in that assay. Compound `Cc1c(-c2ccnn2C)cc(C(=O)NCc2ccc(S(C)(=O)=N[N+](=O)[O-])cc2)c(=O)n1-c1cccc(C(F)(F)F)c1` (centres unmarked) [Example 12, 6-Methyl-N-[[4-(S-methyl-N-nitro-sulfonimidoyl)phenyl]methyl]-5-(2-methylpyrazol-3-yl)-2-oxo-1-[3-(trifluoromethyl)phenyl]pyridine-3-carboxamide] had a half-inhibitory concentration (IC50) of 5 nM.
Then `CN=S(=O)(NCc1ccccc1)c1ccc(CNC(=O)c2cc(-c3ccnn3C)c(C)n(-c3cccc(C(F)(F)F)c3)c2=O)cc1` (centres unmarked) [Example 1.2], with 14.4 nM.
